Data from US8247211B2, “Glycopeptide antibiotics” (American Cyanamid Company, priority 2001, dated 2012).
In brackets after ≈: the same amount, converted by molar mass.

Experiments:
Test in all cases: In vitro antibacterial evaluation: minimum inhibitory concentration (MIC), broth dilution method
Assay type in all cases: cell-based
[1] = tested on: Enterococcus sp.
Summary of the method: (§1)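 Using Muller-Hinton II […] and an inoculum of 5×10^5 CFU/mL, antibiotic dilutions from 64 down to 0.06 μg/mL were tested following NCCLS M7-A2. The MIC is the lowest concentration inhibiting growth, including in methicillin-, penicillin- or vancomycin-resistant clinical isolates.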

[2] = tested on: Escherichia coli
Summary of the method: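 Following NCCLS approved standard M7-A2, compounds are serially diluted from 64 to 0.06 μg/mL in Muller-Hinton II […] and inoculated at 5×10^5 CFU/mL; the MIC is the minimum concentration at which growth is inhibited.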

[3] = tested on: Staphylococcus sp.; conditions: broth dilution, 18 hours at 35° C.
Summary of the method: as §1

[4] = tested on: Streptococcus sp.
Summary of the method: as §1

[5] = broth dilution, inoculum 5×10^5 CFU/mL, 18 hours at 35° C.

## CC(c1ccccc1)C1NC(=O)CNC(=O)C(CO)NC(=O)C(C(O)C2CNC(=N)N2C2OC(CO)C(O)C(O)C2O)NC(=O)C(C(O)C2CNC(=N)N2)NC(=O)C(Cc2ccc(OC3OC(CO)C(OC4OC5COC(c6ccc(C(=O)c7ccccc7)cc6)OC5C(O)C4O)C(O)C3O)cc2)NC1=O (stereo not drawn) [Example 173, Cyclo[glycyl-β-methylphenylalanyl-O-[4-O-[4,6-O-[4-benzoylbenzylidene)hexopyranosyl]-hexopyranosyl]tyrosyl-3-(2-iminoimidazolidin-4-yl)seryl-3-(3-hexopyranosyl-2-iminoimidazolidin-4-yl)serylseryl]]
[1]; [5]
  MIC Enterococcus avium (GC 4558): 1 µg/mL (≈ 0.672 µM)
  MIC Enterococcus faecalis (ATCC 29212): 1 µg/mL (≈ 0.672 µM)
  MIC Enterococcus faecalis (GC 2242): 2 µg/mL (≈ 1.34 µM)
  MIC Enterococcus faecalis (GC 2691): 2 µg/mL (≈ 1.34 µM)
  MIC Enterococcus faecalis (GC 3059): 2 µg/mL (≈ 1.34 µM)
  MIC Enterococcus faecalis (GC 4552): 2 µg/mL (≈ 1.34 µM)
  MIC Enterococcus faecalis (GC 4553): 2 µg/mL (≈ 1.34 µM)
  MIC Enterococcus faecalis (GC 4554): 2 µg/mL (≈ 1.34 µM)
  MIC Enterococcus faecalis (GC 6189): 1 µg/mL (≈ 0.672 µM)
  MIC Enterococcus faecium (GC 2243): 2 µg/mL (≈ 1.34 µM)
  MIC Enterococcus faecium (GC 4556): 1 µg/mL (≈ 0.672 µM)
  MIC Enterococcus faecium (GC 4557): 2 µg/mL (≈ 1.34 µM)
[1]; strain ATCC 29212
  MIC Enterococcus faecalis (ATCC 29212): 1 µg/mL (≈ 0.672 µM)
[1]; strain GC 2242
  MIC Enterococcus faecalis (GC 2242): 2 µg/mL (≈ 1.34 µM)
[1]; strain GC 2243
  MIC Enterococcus faecium (GC 2243): 2 µg/mL (≈ 1.34 µM)
[1]; strain GC 2691
  MIC Enterococcus faecalis (GC 2691): 2 µg/mL (≈ 1.34 µM)
[1]; strain GC 3059
  MIC Enterococcus faecalis (GC 3059): 2 µg/mL (≈ 1.34 µM)
[1]; strain GC 4552
  MIC Enterococcus faecalis (GC 4552): 2 µg/mL (≈ 1.34 µM)
[1]; strain GC 4553
  MIC Enterococcus faecalis (GC 4553): 2 µg/mL (≈ 1.34 µM)
[1]; strain GC 4554
  MIC Enterococcus faecalis (GC 4554): 2 µg/mL (≈ 1.34 µM)
[1]; strain GC 4556
  MIC Enterococcus faecium (GC 4556): 1 µg/mL (≈ 0.672 µM)
[1]; strain GC 4557
  MIC Enterococcus faecium (GC 4557): 2 µg/mL (≈ 1.34 µM)
[1]; strain GC 4558
  MIC Enterococcus avium (GC 4558): 1 µg/mL (≈ 0.672 µM)
[1]; strain GC 6189
  MIC Enterococcus faecalis (GC 6189): 1 µg/mL (≈ 0.672 µM)
[2]; strain ATCC 25922
  MIC Escherichia coli (ATCC 25922): 32 µg/mL (≈ 21.5 µM)
[2]; strain GC 4559
  MIC Escherichia coli (GC 4559): 16 µg/mL (≈ 10.8 µM)
[2]; strain GC 4560
  MIC Escherichi coli (GC 4560): 0.5 µg/mL (≈ 0.336 µM)
[3]; 5×10^5 CFU/mL
  MIC Coagulase Negative Staphylococcus (GC 4547): 2 µg/mL (≈ 1.34 µM)
  MIC Coagulase Negative Staphylococcus (GC 4548): 0.5 µg/mL (≈ 0.336 µM)
  MIC Coagulase Negative Staphylococcus (GC 4549): 0.25 µg/mL (≈ 0.168 µM)
  MIC Coagulase Negative Staphylococcus (GC 4551): 0.5 µg/mL (≈ 0.336 µM)
  MIC Coagulase Negative Staphylococcus (GC 6257): 0.5 µg/mL (≈ 0.336 µM)
  MIC Staphylococcus aureus (ATCC 29213): 1 µg/mL (≈ 0.672 µM)
  MIC Staphylococcus aureus (GC 1131): 2 µg/mL (≈ 1.34 µM)
  MIC Staphylococcus aureus (GC 3051): 0.5 µg/mL (≈ 0.336 µM)
  MIC Staphylococcus aureus (GC 3053): 1 µg/mL (≈ 0.672 µM)
  MIC Staphylococcus aureus (GC 4541): 0.5 µg/mL (≈ 0.336 µM)
  MIC Staphylococcus aureus (GC 4542): 0.5 µg/mL (≈ 0.336 µM)
  MIC Staphylococcus aureus (GC 4544): 2 µg/mL (≈ 1.34 µM)
  MIC Staphylococcus aureus (GC 4545): 2 µg/mL (≈ 1.34 µM)
  MIC Staphylococcus aureus-SMITH (GC 4543): 0.5 µg/mL (≈ 0.336 µM)
  MIC Staphylococcus haemolyticus (GC 4546): 1 µg/mL (≈ 0.672 µM)
[3]; strain ATCC 29213
  MIC Staphylococcus aureus (ATCC 29213): 1 µg/mL (≈ 0.672 µM)
[3]; strain GC 1131
  MIC Staphylococcus aureus (GC 1131): 2 µg/mL (≈ 1.34 µM)
[3]; strain GC 3051
  MIC Staphylococcus aureus (GC 3051): 0.5 µg/mL (≈ 0.336 µM)
[3]; strain GC 3053
  MIC Staphylococcus aureus (GC 3053): 1 µg/mL (≈ 0.672 µM)
[3]; strain GC 4541
  MIC Staphylococcus aureus (GC 4541): 0.5 µg/mL (≈ 0.336 µM)
[3]; strain GC 4542
  MIC Staphylococcus aureus (GC 4542): 0.5 µg/mL (≈ 0.336 µM)
[3]; strain GC 4544
  MIC Staphylococcus aureus (GC 4544): 2 µg/mL (≈ 1.34 µM)
[3]; strain GC 4545
  MIC Staphylococcus aureus (GC 4545): 2 µg/mL (≈ 1.34 µM)
[4]; [5]
  MIC Streptococcus agalactiae (GC 4564): <0.12 µg/mL
  MIC Streptococcus pneumoniae (ATCC 6301): <0.12 µg/mL
  MIC Streptococcus pneumoniae (GC 1894): <0.12 µg/mL
  MIC Streptococcus pneumoniae (GC 4565): <0.12 µg/mL
  MIC Streptococcus pyogenes (GC 4563): <0.12 µg/mL
[4]; strain ATCC 6301
  MIC Streptococcus pneumoniae (ATCC 6301): <0.12 µg/mL
[4]; strain GC 1894
  MIC Streptococcus pneumoniae (GC 1894): <0.12 µg/mL
[4]; strain GC 4563
  MIC Streptococcus pyogenes (GC 4563): <0.12 µg/mL
[4]; strain GC 4564
  MIC Streptococcus agalactiae (GC 4564): <0.12 µg/mL
[4]; strain GC 4565
  MIC Streptococcus pneumoniae (GC 4565): <0.12 µg/mL
